{"source": "patent US20070082903A1", "about": "“Remedy for rheumatoid arthritis” (priority 2003, published 2007)", "key": {"[1]": {"assay": "repeated oral administration toxicity test, SMP-114 concentration in serum (HPLC-fluorescence)", "assay_type": "in vivo", "conditions": "both sexes, Crj:CD(SD), rat, rats", "procedure": "Next, a repeated oral administration toxicity test on Crj:CD(SD) rats aged 5 weeks was carried out for each of one month and six months (once-a-day oral administration in both cases). SMP-114 was repeatedly administered to male and female SD strain rats (10 rats per group) for one month in a dose of each of 10, 30, 100 and 300 mg/kg, and its subacute toxicity and the recovery by one month of the suspension of the administration were investigated. In addition, the time-course of SMP-114 concentration in serum after each of one run of the administration and 30 days of the repeated administration was investigated. […] In addition, the time-course of SMP-114 concentration in serum after each of one run of the administration, 3 months of the repeated administration and 6 months of the repeated administration was investigated. The SMP-114 concentration in serum was measured by an HPLC-fluorescence method (fluorescence wavelength: 319 nm) after extracting SMP-114 from each sample with diethyl ether under slight acidic conditions (pH 4.7)."}, "[2]": {"assay": "repeated administration test on healthy male Japanese (7 days)", "assay_type": "in vivo, human", "procedure": "AUC0-24 level of the agent in its repeated administration to humans A repeated administration test on healthy male Japanese of 20 to 40 years old was carried out. Using the SMP-114 tablets and placebo tablets, 80 mg of each of the placebo and SMP-114 was orally administered once a day for 7 days by a placebo controlled double-blind method (8 cases of SMP-114 administration and 2 cases of placebo administration: 10 subjects in total)."}, "[3]": {"assay": "tolerance test by a single administration, healthy person Japanese", "assay_type": "in vivo, human", "conditions": "single dose 10, 20, 40, 80 or 120 mg, tablets, hungry, healthy male Japanese", "procedure": "• (1) A single-administration test on healthy male Japanese (20 to 40 years old, body weight: less than 80 kg and not less than 50 kg, degree of corpulence: ±20% or less) was carried out. Using the SMP-114 tablets and a placebo as control, 10, 20, 40, 80 or 120 mg of SMP-114 was administered by a single-blind method when the subjects were hungry (at each dose, 6 cases of SMP-114 administration and 2 cases of placebo administration: 40 subjects in total). As to items of evaluation related to safety, observations about the following were carried out: vital signs (body temperature, blood pressure-pulse rate and respiration rate), 12-induction electrocardiogram, clinical examinations [hematological examination, blood biochemical examination, endocrinological examinations (FT4, FT3 and TSH), serological examination (haptoglobin) and urinalysis], and harmful matters. As items of evaluation related to pharmacokinetics, the concentrations of SMP-114 and its metabolites in serum and urine were measured. […]"}, "[4]": {"system": "mice with collagen arthritis", "conditions": "cited from earlier work"}, "[5]": {"system": "rats with adjuvant arthritis", "conditions": "cited from earlier work"}, "[6]": {"assay": "tolerance test by a single administration, healthy male Caucasians", "assay_type": "in vivo, human", "conditions": "single oral dose 10, 20, 40, 60, 80, 100, 120 or 140 mg, suspension, fasted"}}}
{"smiles": "C[C@@H](c1ccc(-c2ccccc2)c(F)c1)c1cc(/N=C(/N)N2CCOCC2)on1", "note": "[SMP-114, 3-[(1S)-1-(2-fluorobiphenyl-4-yl)ethyl]-5-{[amino(morpholin-4-yl)methylene]amino}isoxazole]", "values": [{"measurement": "AUC(0-t)", "setting": "[1]; oral, calculated for a dose of 5 mg/kg, read-out: AUC0-24 for the exhibition of efficacy", "result": "2710 to 3580", "unit": "ng·h/mL"}, {"measurement": "AUC(0-t)", "setting": "[1]; 6 mg/kg oral once a day for 6 months, read-out: AUC0-24", "result": 3250, "unit": "ng·h/mL"}, {"measurement": "AUC(0-t)", "setting": "[1]; 10 mg/kg oral once a day for one month, read-out: AUC0-24", "result": 7160, "unit": "ng·h/mL"}, {"measurement": "accumulative property", "setting": "[2]; 80 mg once a day for 7 days", "result": "no accumulative property"}, {"measurement": "tolerance", "setting": "[2]; 80 mg oral once a day for 7 days", "result": "satisfactory"}, {"measurement": "AUC(0-t)", "setting": "[2]; human, serum, 80 mg oral once a day for 7 days, tablets, read-out: AUC0-24 at a steady state", "result": 15300, "unit": "ng·h/mL"}, {"measurement": "side effects undesirable with respect to tolerance", "setting": "[3]", "result": "observed at none of the doses"}, {"measurement": "antiarthritic effect", "setting": "[4]; mice with collagen arthritis", "result": "antiarthritic effect"}, {"measurement": "minimum effective amount for antiarthritic effect", "setting": "[4]; once-a-day oral administration", "result": 5, "unit": "mg/kg"}, {"measurement": "minimum effective amount for antiarthritic effect", "setting": "[5]; once-a-day oral administration", "result": 2.5, "unit": "mg/kg"}, {"measurement": "antiarthritic effect", "setting": "[5]; rats with adjuvant arthritis", "result": "antiarthritic effect"}, {"measurement": "side effects undesirable with respect to tolerance", "setting": "[6]", "result": "observed at none of the doses"}]}
